This passage reports IC50 and inhibition in vivo results from US8883782B2, “Spiro-tetracyclic ring compounds as beta-secretase modulators and methods of use” (Amgen Inc., priority 2010, dated 2014).

The target in assay [1] is Beta Secretase enzyme (BACE) (Homo sapiens, UniProt P56817). Put plainly: In vitro enzymatic BACE FRET (fluorescence resonance energy transfer) assay. To be noted: average IC50, enzyme assay; read-out: BACE 1 FRET assay. The format is biochemical. The procedure, abridged: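 Cleavage of a 50 nM fluorophore/quencher peptide FRET substrate by BACE for 1 h in 0.05 M acetate pH 4.2, 10% DMSO, 100 uM genapol. Reaction stopped with Tris to neutral pH before fluorescence reading.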
Beta Secretase enzyme (BACE), sequence (P56817 46-501, species assumed): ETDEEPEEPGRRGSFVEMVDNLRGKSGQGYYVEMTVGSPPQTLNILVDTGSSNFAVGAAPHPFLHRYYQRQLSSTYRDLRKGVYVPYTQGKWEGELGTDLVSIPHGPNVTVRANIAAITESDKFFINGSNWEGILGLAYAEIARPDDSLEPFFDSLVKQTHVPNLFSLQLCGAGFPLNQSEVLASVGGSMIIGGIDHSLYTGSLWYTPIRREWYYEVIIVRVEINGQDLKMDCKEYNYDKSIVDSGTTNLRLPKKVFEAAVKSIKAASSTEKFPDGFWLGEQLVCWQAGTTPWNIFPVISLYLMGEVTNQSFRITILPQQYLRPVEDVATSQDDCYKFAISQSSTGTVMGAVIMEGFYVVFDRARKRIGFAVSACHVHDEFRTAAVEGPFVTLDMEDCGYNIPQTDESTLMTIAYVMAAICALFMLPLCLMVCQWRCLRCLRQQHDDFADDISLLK

In assay [2] the test system is Abeta 40 in cerebrospinal fluid (CSF) and brain. Put plainly: In vivo inhibition of beta-secretase (Abeta 40 reduction in CSF and brain). To be noted: rat, after 4 hrs; for inhibition in vivo at 10 mg/kg: Abeta 40, 10 mg/kg (10 mpk); for inhibition in vivo at 3 mg/kg: Abeta 40, 3 mpk.
Assay [3] has as its system Aβ40 in conditioned medium of cells stably expressing Amyloid Precursor Protein (APP). Put plainly: In vitro BACE cell-based assay (Aβ40 in conditioned medium, sandwich ELISA). The conditions noted are these: Homo sapiens, read-out: HEK cell assay. The procedure, abridged: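 Quantification relied on pAb40/6E10 sandwich ELISA with Europium fluorescence counts, and IC50 was fitted versus concentration.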
A general note: ELISA stands for enzyme-linked immunosorbent assay.

Where [4] appears, read: CSF, read-out: CSF A-beta reduction % at 10 mg/kg.
The mark [5] stands for this setting: brain, read-out: Brain A-beta reduction % at 10 mg/kg.
Where [6] appears, read: HEK293, average IC50, HEK cells.
The mark [7] stands for this setting: CSF, read-out: CSF A-beta reduction % at 3 mpk.
Setting [8] is: brain, read-out: Brain A-beta reduction % at 3 mpk.

Like-named read-outs stand apart in the source and are kept apart here.

Consider `CC(C)(F)COc1cc(F)c2c(c1)[C@]1(CSC(N)=N1)c1cc(-c3cccnc3F)ccc1O2` [Example 1067, (S)-4′-fluoro-2′-(2-fluoro-2-methylpropoxy)-7′-(2-fluoropyridin-3-yl)-5H-spiro[thiazole-4,9′-xanthen]-2-amine], for which the IC50 came to 0.3 nM in assay [1] and 15 nM in assay [3] (HEK293, average IC50). Further, the inhibition in vivo at 10 mg/kg in assay [2] (setting [4]) worked out at 69%; in assay [2] (setting [5]), 55%.

`Cc1cc(-c2cc3c(c(F)n2)Oc2ccc(-c4cccnc4F)cc2[C@@]32CSC(N)=N2)ccn1` [Example 1037, (S)-1-fluoro-7-(2-fluoropyridin-3-yl)-3-(2-methylpyridin-4-yl)-5′H-spiro[chromeno[2,3-c]pyridine-5,4′-thiazol]-2′-amine]: the IC50 in assay [1] came to 2.1 nM; in assay [3] (HEK293, average IC50), 49 nM. Further, the inhibition in vivo at 10 mg/kg in assay [2] (setting [4]) worked out at 67%; in assay [2] (setting [5]) it was 58%.

As for `NC1=N[C@@]2(CS1)c1cc(-c3cccnc3F)ccc1Oc1cnc(C3=CCCOC3)cc12` [Example 928, (S)-3-(5,6-dihydro-2H-pyran-3-yl)-7-(2-fluoropyridin-3-yl)-5′H-spiro[chromeno[2,3-c]pyridine-5,4′-thiazol]-2′-amine], the IC50 in assay [1] is 0.4 nM; in assay [3] (setting [6]), 8 nM. For the same compound, the results for the inhibition in vivo at 10 mg/kg in assay [2] (setting [4]) and in assay [2] (setting [5]) were 82% and 71%, respectively.

Regarding `CC#Cc1cncc(-c2ccc3c(c2)[C@@]2(COC(N)=N2)c2cc(C#CC(C)(C)O)cc(F)c2O3)c1` [Example 951, (S)-4-(2-amino-5′-fluoro-2′-(5-(prop-1-ynyl)pyridin-3-yl)-5H-spiro[oxazole-4,9′-xanthene]-7′-yl)-2-methylbut-3-yn-2-ol], the figures for the IC50 in assay [1] and in assay [3] (setting [6]) were 0.6 nM and 4 nM, respectively. Besides, the figures for the inhibition in vivo at 3 mg/kg in assay [2] (setting [7]) and in assay [2] (setting [8]) were 17% and 13%, respectively.

Consider `NC1=N[C@@]2(CS1)c1cc(-c3cccnc3F)ccc1Oc1c(F)cc(-c3cccnc3)cc12` [Example 1083, (S)-4′-fluoro-7′-(2-fluoropyridin-3-yl)-2′-(pyridin-3-yl)-5H-spiro[thiazole-4,9′-xanthen]-2-amine], for which the IC50 worked out at 1.2 nM in assay [1] and 18 nM in assay [3] (HEK293, average IC50). The inhibition in vivo at 10 mg/kg in assay [2] (setting [4]) worked out at 66%; in assay [2] (setting [5]) it was 53%.

On to `CC#Cc1cncc(-c2ccc3c(c2)[C@@]2(COC(N)=N2)c2cc(-c4cnn(C)c4)cc(F)c2O3)c1` [Example 947, (S)-4′-fluoro-2′-(1-methyl-1H-pyrazol-4-yl)-7′-(5-(prop-1-ynyl)pyridin-3-yl)-5H-spiro[oxazole-4,9′-xanthen]-2-amine], for which the IC50 in assay [1] was 0.4 nM; in assay [3] (setting [6]), 4 nM. The inhibition in vivo at 3 mg/kg in assay [2] (setting [7]) stood at 22%; in assay [2] (setting [8]) it was 25%.

Regarding `Cc1ccnc(F)c1-c1ccc2c(c1)[C@@]1(COC(N)=N1)c1cc(C3=CCOCC3)ncc1O2` [Example 236, (S)-3-(3,6-dihydro-2H-pyran-4-yl)-7-(2-fluoro-4-methylpyridin-3-yl)-5′H-spiro[chromeno[2,3-c]pyridine-5,4′-oxazol]-2′-amine], the IC50 is 0.9 nM in assay [1] and 6 nM in assay [3] (HEK293, average IC50). Further, the inhibition in vivo at 10 mg/kg was 58% in assay [2] (setting [4]) and 34% in assay [2] (setting [5]).

As to `Cc1cnc(-c2cc(F)c3c(c2)[C@]2(COC(N)=N2)c2cc(-c4cccnc4F)ccc2O3)nc1` [Example 226, (S)-4′-fluoro-7′-(2-fluoropyridin-3-yl)-2′-(5-methylpyrimidin-2-yl)-5H-spiro[oxazole-4,9′-xanthen]-2-amine], the IC50 in assay [1] came out at 3.9 nM; in assay [3] (HEK293, average IC50) it was 27.2 nM. Also, the inhibition in vivo at 10 mg/kg is 31% in assay [2] (setting [4]) and 19% in assay [2] (setting [5]).

For the compound `NC1=N[C@@]2(CS1)c1cc(-c3cccnc3F)ccc1Oc1ncc(C3=CCOCC3)cc12` [Example 97, (S)-3-(3,6-dihydro-2H-pyran-4-yl)-7-(2-fluoropyridin-3-yl)-5′H-spiro[chromeno[2,3-b]pyridine-5,4′-thiazol]-2′-amine], the IC50 in assay [1] turned out to be 0.5 nM; in assay [3] (setting [6]), 7.6 nM. Further, the results for the inhibition in vivo at 10 mg/kg in assay [2] (setting [4]) and in assay [2] (setting [5]) were 46% and 28%, respectively.

For the compound `CC1(C)C=C(c2cc3c(cn2)Oc2ccc(-c4cncc(F)c4)cc2[C@@]32COC(N)=N2)CCO1` [Example 135, (S)-3-(6,6-dimethyl-3,6-dihydro-2H-pyran-4-yl)-7-(5-fluoropyridin-3-yl)-5′H-spiro[chromeno[2,3-c]pyridine-5,4′-oxazol]-2′-amine], the IC50 in assay [1] amounted to 1.3 nM; in assay [3] (HEK293, average IC50), 10 nM. Also, the inhibition in vivo at 10 mg/kg in assay [2] (setting [4]) is 61%; in assay [2] (setting [5]), 44%.

`COc1nc(-c2ccnc(F)c2)cc2c1Oc1ccc(-c3cccnc3)cc1[C@@]21COC(N)=N1` [Example 839, (S)-3-(2-fluoropyridin-4-yl)-1-methoxy-7-(pyridin-3-yl)-5′H-spiro[chromeno[2,3-c]pyridine-5,4′-oxazol]-2′-amine]: the IC50 was 2.1 nM in assay [1] and 11 nM in assay [3] (HEK293, average IC50). The inhibition in vivo at 10 mg/kg in assay [2] (setting [4]) came out at 37%; in assay [2] (setting [5]), 23%.

Take `NC1=N[C@@]2(CO1)c1cc(-c3cncc(F)c3)ccc1Oc1c2cc(N2CCC(F)(F)C2)nc1F` [Example 922, (S)-3-(3,3-difluoropyrrolidin-1-yl)-1-fluoro-7-(5-fluoropyridin-3-yl)-5′-H-spiro[chromeno[2,3-c]pyridine-5,4′-oxazol]-2′-amine]: the IC50 in assay [1] turned out to be 0.4 nM; in assay [3] (setting [6]), 9 nM. The inhibition in vivo at 3 mg/kg in assay [2] (setting [7]) amounted to 69%; in assay [2] (setting [8]), 57%.

For the compound `NC1=N[C@@]2(CO1)c1cc(-c3cccnc3F)ccc1Oc1c(F)cc(N3CC4CCC(C3)O4)cc12` [Example 225, (4S)-2′-(8-oxa-3-azabicyclo[3.2.1]octan-3-yl)-4′-fluoro-7′-(2-fluoropyridin-3-yl)-5H-spiro[oxazole-4,9′-xanthen]-2-amine], the IC50 in assay [1] was 0.3 nM; in assay [3] (HEK293, average IC50) it was 1.6 nM. Further, the inhibition in vivo at 10 mg/kg was 64% in assay [2] (setting [4]) and 47% in assay [2] (setting [5]).
